Data set [1] can be described thus: Aqueous solubility by UPLC. It is filed as physicochemical. The conditions noted are these: for Solubility in water: UPLC. The protocol:
Acquity ultra performance liquid chromatography (UPLC) from Waters was used for solubility and stoichiometry determination. […] UPLC was equipped with Acquity PDA detector. UPLC mobile phase solvent A was 0.1% TFA in DI-water, solvent B was 0.1% TFA in acetonitrile.
Column temperature was 40±5° C. Acquity UPLC® HSS T3 1.8 μm, 2.1×50 mm column was used.
A known amount of sample was dissolved in water and analyzed by UPLC.

A short description of data set [2]: Deliquescence relative humidity (DRH) by water activity meter. It is filed as physicochemical. Particulars: for DRH (deliquescence relative humidity): saturated aqueous solution with excess solid at 25° C. From the text: If saturated in water with excess solid, a deliquescing compound or salt thereof equilibrated in a closed system at a given temperature produces a % RH in that closed system that is equal to its deliquescing % RH (DRH) at that temperature. Fractional relative humidity is equal to water activity (aw) in the vapor phase and at equilibrium in a closed system, the aw in an aqueous solution is equal to the aw in the vapor phase above the solution (see Equation 1).
A water activity meter was used to measure DRH for selected salts described herein. […] This instrument is designed with temperature control and a small headspace above the enclosed sample to establish equilibrium between solution and vapor phases quickly.

Data set [3] can be described thus: Dynamic moisture-sorption (DMS) analysis. Particulars: for DMS weight increase at 70% RH: adsorption cycle, 25° C., Form I; for State of the sample after DMS analysis: after removal from the analyzer, PXRD where done.
Protocol: Samples were prepared for DMS analysis by placing 5 mg to 20 mg of a sample in a tared sample holder. The sample was placed on the hang-down wire of the VTI balance. A drying step was run, typically at 40° C. and 0.5-1% RH for 1-2 h. The isotherm temperature is 25° C. […] A % weight change smaller than 0.010% over a specified number of minutes (typically 10-20), or up to 2 h, whichever occurs first, is required before continuing to the next % RH hold. The water content of the sample equilibrated as described above was determined at each % RH hold.
For data set [4] the following is noted: cited from earlier work.
The conditions of data set [5]: cited from earlier work. The source holds these as a separate data set.
The mark [6] stands for this setting: patients who completed 52 weeks of treatment according to the protocol.
Setting [7] is: pivotal phase 3 program, up to two years.
Setting [8] is: second phase 3 trial, top quartile of patients.

The text below walks through data of patent publication US9248133B2, “Salts of lorcaserin with optically active acids” (Arena Pharmaceuticals, Inc., priority 2010, dated 2016).

`CC1(C)C2CC[C@@]1(CS(=O)(=O)O)C(=O)C2.C[C@H]1CNCCc2ccc(Cl)cc21` [(R)-8-Chloro-1-methyl-2,3,4,5-tetrahydro-1H-3-benzazepine (1S)-(+)-10-Camsylate Salt] displayed a Solubility in water in data set [1] of 20 mg/mL. Also, the “Deliquescence conclusion from DRH” value in data set [2] (25° C.) is recorded as “not deliquescent”. Also, in data set [2], the “DRH (deliquescence relative humidity)” value was determined as 99.8 % RH.

With “(R)-8-Chloro-1-methyl-2,3,4,5-tetrahydro-1H-3-benzazepine Hemi-L-malate Salt [Compound 1 Hemi-L-Malate Salt, Form I]”, the Solubility in water in data set [1] turned out to be 486.3 mg/mL. In data set [2], the “DRH (deliquescence relative humidity)” value is recorded as 89.9 % RH.

Regarding `C[C@H]1CNCCc2ccc(Cl)cc21.C[C@H]1CNCCc2ccc(Cl)cc21.O=C(O)[C@@H](O)[C@H](O)[C@H](O)[C@@H](O)C(=O)O` [Compound 1 Hemimucate Salt, Form I, (R)-8-Chloro-1-methyl-2,3,4,5-tetrahydro-1H-3-benzazepine Hemimucate], in data set [1], the Solubility in water is 0.85 mg/mL.

Turning to “(R)-8-Chloro-1-methyl-2,3,4,5-tetrahydro-1H-3-benzazepine Pyroglutamate Salt [Compound 1 Pyroglutamate Salt, Form I]”, the “DMS weight increase at 70% RH” value in data set [3] was approximately 17%; in data set [3] (listed as Compound 1 Pyrogluconate Salt), “FIG. 21: 17-24% weight increase at 70% RH, about”. For the same compound, in data set [3], the “State of the sample after DMS analysis” value is on record as “sticky oil”.

Compound “(R)-8-Chloro-1-methyl-2,3,4,5-tetrahydro-1H-3-benzazepine Glucuronate Salt [Compound 1 Glucuronate Salt, Form I]” registered a Solubility in water in data set [1] of 2.5 mg/mL.

For the compound `C[C@H]1CNCCc2ccc(Cl)cc21.Cl` [lorcaserin, (R)-8-Chloro-1-methyl-2,3,4,5-tetrahydro-1H-3-benzazepine hydrochloride], in data set [4] (12 months, ITT-LOCF analysis), the “Average weight loss, % of body weight” value is 5.8%; the “Average weight loss, pounds” value was 12.7 pounds; the “Patients who lost greater than or equal to 5% of their body weight from baseline” value is given as 47.5%; the “Patients who lost greater than or equal to 10% of their body weight from baseline” value is on record as 22.6%. In data set [4] (setting [6]), the “Average weight loss of completers, % of body weight” value is given as 8.2% and the “Average weight loss of completers, pounds” value is 17.9 pounds. Further, the Tolerability result in data set [4] (phase 3 trial) is “generally very well tolerated”. The “FDA-defined valvulopathy (echocardiograms)” value in data set [4] (two-year treatment period) was “no apparent drug-related effect”. In data set [5] (first phase 3 trial, based on a normal BMI of 25), the “Excess body weight lost” value is reported as “about one-third”. Further, in data set [5] (setting [7]), the “Patients who achieved at least 5% weight loss” value was “About two-thirds” and the “Patients who achieved at least 10% weight loss” value is listed as “over one-third”. Further, in data set [5] (pivotal phase 3 program), the “Average weight lost, % of weight” value is “about 8%”; the “Depression or suicidal ideation” value is listed as “no signal”; the “Heart rate and blood pressure” value was “went down”; the “Risk of cardiac valvulopathy” value was “did not increase the risk of cardiac valvulopathy”. In data set [5] (setting [8]), the “Average weight loss of the top quartile, % of body weight” value is listed as 16% and the “Average weight loss of the top quartile, pounds” value is recorded as 35 pounds.

With “(R)-8-Chloro-1-methyl-2,3,4,5-tetrahydro-1H-3-benzazepine Di-camphorate Salt Solvate”, the “DMS weight lost on the desorption phase” value in data set [3] (25° C. and 10% RH) is listed as “over 1.2%”. In addition, the “State of the sample after DMS analysis” value in data set [3] is given as “crystalline phase did not change”. The compound further registered a Solubility in water in data set [1] of 38.6 mg/mL. In data set [1] (water, pH 5.2), the “Aqueous solubility expressed as the free base” value was found to be 12.3 mg/mL.
